In US12637454B2, “Heterocyclic monoacylglycerol lipase (MAGL) inhibitors” (Hoffmann-La Roche Inc., priority 2019, dated 2026) one finds IC50 data, which are given here for 24 molecules.

The assay addresses T1, MAGL (Homo sapiens, UniProt Q99685).
T1 sequence (Q99685 1-303): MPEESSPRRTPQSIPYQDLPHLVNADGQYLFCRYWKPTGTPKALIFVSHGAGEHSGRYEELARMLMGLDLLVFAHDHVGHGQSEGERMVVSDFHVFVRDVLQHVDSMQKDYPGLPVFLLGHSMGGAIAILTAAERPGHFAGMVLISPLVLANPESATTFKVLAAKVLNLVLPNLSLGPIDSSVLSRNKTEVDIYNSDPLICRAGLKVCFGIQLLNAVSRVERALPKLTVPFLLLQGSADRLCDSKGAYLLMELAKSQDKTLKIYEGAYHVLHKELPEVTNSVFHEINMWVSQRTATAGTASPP
In words: 2-AG assay (MAGL inhibitory activity, hydrolysis of 2-arachidonoylglycerol followed by mass spectrometry). Format: biochemical. The note with it: 50 pM MAGL, 8 μM 2-arachidonoylglycerol, 15 min preincubation, 30 min incubation at RT. As for the experimental part: Compounds were profiled for MAGL inhibitory activity by determining the enzymatic activity by following the hydrolysis of the natural substrate 2-arachidonoylglycerol (2-AG) resulting in arachidonic acid, which can be followed by mass spectrometry. This assay is hereinafter abbreviated “2-AG assay”.
The 2-AG assay was carried out in 384 well assay plates (PP, Greiner Cat #784201) in a total volume of 20 μL. Compound dilutions were made in 100% DMSO (VWR Chemicals 23500.297) in a polypropylene plate in 3-fold dilution steps to give a final concentration range in the assay from 12.5 μM to 0.8 pM. 0.25 μL compound dilutions (100% DMSO) were added to 9 μL MAGL in assay buffer (50 mM TRIS (GIBCO, 15567-027), 1 mM EDTA (Fluka, 03690-100 mL), 0.01% (v/v) Tween. After shaking, the plate was incubated for 15 min at RT. To start the reaction, 10 μL 2-arachidonoylglycerol in assay buffer was added. The final concentrations in the assay was 50 pM MAGL and 8 μM 2-arachidonoylglyerol. After shaking and 30 min incubation at RT, the reaction was quenched by the addition of […] of ACN containing 4 μM of d8-arachidonic acid. The amount of arachidonic acid was traced by an online SPE system (Agilent Rapidfire) coupled to a triple quadrupole mass spectrometer (Agilent 6460). A C18 SPE cartridge (G9205A) was used in an ACN/water liquid setup. The mass spectrometer was operated in negative electrospray mode following the mass transitions 303.1→259.1 for arachidonic acid and 311.1→267.0 for d8-arachidonic acid. The activity of the compounds was calculated based on the ratio of intensities [arachidonic acid/d8-arachidonic acid].

Structures are written as SMILES.

In the case of `Cc1c[nH]nc1-c1cccc(C(=O)N2CCN3C[C@@](O)(c4ccc(Cl)cc4)CC[C@@H]3C2)c1F` [Example 15, [(7S,9aR)-7-(4-chlorophenyl)-7-hydroxy-3,4,6,8,9,9a-hexahydro-1H-pyrido[1,2-a]pyrazin-2-yl]-[2-fluoro-3-(4-methl1-1H-pyrazol-3-yl)phenyl]methanone], half-maximal inhibition (IC50) was put at 168 nM.

On to `Cc1cn[nH]c1-c1cccc(C(=O)N2CCN3C[C@@](O)(c4ccc(Cl)cc4)CC[C@@H]3C2)c1Cl` [Example 16, [(7S,9aR)-7-(4-chlorophenyl)-7-hydroxy-3,4,6,8,9,9a-hexahydro-1H-pyrido[1,2-a]pyrazin-2-yl]-[2-chloro-3-(4-methyl-1H-pyrazol-5-yl)phenyl]methanone], for which the IC50 (as a rule, the midpoint of a concentration-inhibition curve) was 10.3 nM.

With `Cc1c[nH]nc1-c1cccc(C(=O)N2CCN3C[C@@](O)(c4ccc(Cl)cc4)CC[C@@H]3C2)c1` [Example 17], it took 255 nM to reach half-maximal inhibition (IC50). Against the preceding molecule, the IC50 is about 25-fold higher.

Turning to `COc1cccc(C(=O)N2CCN3C[C@@](O)(c4ccc(C(F)(F)F)cn4)CC[C@@H]3C2)c1Cl` [Example 18], the IC50 was determined as 97.2 nM.

`COc1cccc(C(=O)N2CCN3C[C@](O)(c4ccc(C(F)(F)F)cn4)CC[C@H]3C2)c1Cl` [Example 19, [(7S,9aS)-7-hydroxy-7-[5-(trifluoromethyl)pyridin-2-yl]-3,4,6,8,9,9a-hexahydro-1H-pyrido[1,2-a]pyrazin-2-yl]-(2-chloro-3-methoxyphenyl)methanone] came in with an IC50 of 150 nM.

Regarding `O=C(c1cccc(-c2ccn[nH]2)c1Cl)N1CCN2C[C@@](O)(c3ccc(C(F)(F)F)cn3)CC[C@@H]2C1` [Example 20, [(7R,9aR)-7-hydroxy-7-[5-(trifluoromethyl)pyridin-2-yl]-3,4,6,8,9,9a-hexahydro-1H-pyrido[1,2-a]pyrazin-2-yl]-[2-chloro-3-(1H-pyrazol-5-yl)phenyl]methanone], it took 11.5 nM to reach half-maximal inhibition (IC50). This IC50 is about 13-fold lower than that of the molecule before.

The molecule `O=C(c1cccc(N2CCOCC2)c1F)N1CCN2C[C@@](O)(c3ccc(Cl)cc3)CC[C@@H]2C1` [Example 21, [(7S,9aR)-7-(4-chlorophenyl)-7-hydroxy-3,4,6,8,9,9a-hexahydro-1H-pyrido[1,2-a]pyrazin-2-yl]-(2-fluoro-3-morpholino-phenyl)methanone] gave an IC50 of 351 nM.

The molecule `CC(C)(C)OC(=O)N1CCN(c2cccc(C(=O)N3CCN4C[C@@](O)(c5ccc(Cl)cc5)CC[C@@H]4C3)c2F)CC1` [Example 22, tert-butyl 4-[3-[(7S,9aR)-7-(4-chlorophenyl)-7-hydroxy-3,4,6,8,9,9a-hexahydro-1H-pyrido[1,2-a]pyrazine-2-carbonyl]-2-fluorophenyl]piperazine-1-carboxylate] showed an IC50 of 838 nM.

For the molecule `O=C(c1cccc(N2CCNCC2)c1F)N1CCN2C[C@@](O)(c3ccc(Cl)cc3)CC[C@@H]2C1` [Example 23, [(7S,9aR)-7-(4-chlorophenyl)-7-hydroxy-3,4,6,8,9,9a-hexahydro-1H-pyrido[1,2-a]pyrazin-2-yl]-(2-fluoro-3-piperazin-1-ylphenyl)methanone], the IC50 was 656 nM.

Turning to `O=C(c1cccc(/C=C\c2ccccc2)c1Br)N1CCN2C[C@@H](c3ccc(Cl)cc3)CC[C@@H]2C1` [Example 27, [(7R,9aR)-7-(4-chlorophenyl)-1,3,4,6,7,8,9,9a-octahydropyrido[1,2-a]pyrazin-2-yl]-[2-bromo-3-[(Z)-2-phenylethenyl]phenyl]methanone], the IC50 turned out to be 10.5 nM.

Molecule `O=C(c1cccc(/C=C/c2ccccc2)c1Br)N1CCN2C[C@@H](c3ccc(Cl)cc3)CC[C@@H]2C1` [Example 28, [(7R,9aR)-7-(4-chlorophenyl)-1,3,4,6,7,8,9,9a-octahydropyrido[1,2-a]pyrazin-2-yl]-[2-bromo-3-[(E)-2-phenylethenyl]phenyl]methanone] came in with an IC50 of 169 nM.

Take `CC(C)(C)OC(=O)Nc1ccc(/C=C/c2cccc(C(=O)N3CCN4C[C@@H](c5ccc(Cl)cc5)CC[C@@H]4C3)c2Br)cc1` [Example 29]: half-maximal inhibition (IC50) required 7.62 nM.

`C=CC(=O)Nc1ccc(/C=C/c2cccc(C(=O)N3CCN4C[C@@H](c5ccc(Cl)cc5)CC[C@@H]4C3)c2Br)cc1` [Example 30, N-[4-[(E)-2-[3-[(7R,9aR)-7-(4-chlorophenyl)-1,3,4,6,7,8,9,9a-octahydropyrido[1,2-a]pyrazine-2-carbonyl]-2-bromophenyl]ethenyl]phenyl]prop-2-enamide] showed an IC50 of 18.5 nM.

In the case of `O=C(c1cccc(N2CC(O)C2)c1Cl)N1CCN2C[C@@](O)(c3ccc(C(F)(F)F)cn3)CC[C@@H]2C1` [Example 32, [(7R,9aR)-7-hydroxy-7-[5-(trifluoromethyl)pyridin-2-yl]-3,4,6,8,9,9a-hexahydro-1H-pyrido[1,2-a]pyrazin-2-yl]-[2-chloro-3-(3-hydroxyazetidin-1-yl)phenyl]methanone], the 50% inhibitory concentration (IC50) is 72.7 nM. Compared with the last molecule, the IC50 is about 3.9-fold higher.

Regarding `O=C(c1cccc(O)c1Cl)N1CCN2C[C@@](O)(c3ccc(Cl)cc3)CC[C@@H]2C1` [Example 33, [(7S,9aR)-7-(4-chlorophenyl)-7-hydroxy-3,4,6,8,9,9a-hexahydro-1H-pyrido[1,2-a]pyrazin-2-yl]-(2-chloro-3-hydroxyphenyl)methanone], half-maximal inhibition (IC50) required 159 nM.

In turn, `O=C1CN(c2cccc(C(=O)N3CCN4C[C@@](O)(c5ccc(Cl)cc5)CC[C@@H]4C3)c2F)CCN1` [Example 34, 4-(3-((7S,9aR)-7-(4-chlorophenyl)-7-hydroxyoctahydro-2H-pyrido[1,2-a]pyrazine-2-carbonyl)-2-fluorophenyl)piperazin-2-one] showed an IC50 of 145 nM. The IC50 values of the last two molecules are within 1.5-fold of each other.

For `O=C1CN(c2cccc(C(=O)N3CCN4C[C@@](O)(c5ccc(Cl)cc5)CC[C@@H]4C3)c2Cl)CCN1` [Example 35, 4-[3-[(7S,9aR)-7-(4-chlorophenyl)-7-hydroxy-3,4,6,8,9,9a-hexahydro-1H-pyrido[1,2-a]pyrazine-2-carbonyl]-2-chlorophenyl]piperazin-2-one], the IC50 was 86 nM.

`O=C(c1cccc(N2CCC23COC3)c1Cl)N1CCN2C[C@@](O)(c3ccc(Cl)cc3)CC[C@@H]2C1` [Example 36, [(7S,9aR)-7-(4-chlorophenyl)-7-hydroxy-3,4,6,8,9,9a-hexahydro-1H-pyrido[1,2-a]pyrazin-2-yl]-[2-chloro-3-(6-oxa-1-azaspiro[3.3]heptan-1-yl)phenyl]methanone] showed an IC50 of 76 nM.

`O=C(c1cccc(N2CC(O)C2)c1F)N1CCN2C[C@@](O)(c3ccc(F)c(Cl)c3)CC[C@@H]2C1` [Example 39, [(7S,9aR)-7-(3-chloro-4-fluorophenyl)-7-hydroxy-3,4,6,8,9,9a-hexahydro-1H-pyrido[1,2-a]pyrazin-2-yl]-[2-fluoro-3-(3-hydroxyazetidin-1-yl)phenyl]methanone] showed an IC50 of 38.5 nM.

Molecule `O=C(c1cccc(N2CC(O)C2)c1Cl)N1CCN2C[C@@](O)(c3ccc(F)c(Cl)c3)CC[C@@H]2C1` [Example 40] displayed a concentration for half-maximal inhibition (IC50) of 6.91 nM.

`O=C(c1cccc(F)c1Cl)N1CCN2C[C@@](O)(c3ccc(C(F)(F)F)cn3)CC[C@@H]2C1` [Example 41, [(7R,9aR)-7-hydroxy-7-[5-(trifluoromethyl)pyridin-2-yl]-3,4,6,8,9,9a-hexahydro-1H-pyrido[1,2-a]pyrazin-2-yl]-(2-chloro-3-fluorophenyl)methanone]: half-maximal inhibition (IC50) required 392 nM. Compared with the last molecule, the IC50 is about 57-fold higher.

`O=C(c1cccc(F)c1Cl)N1CCN2C[C@](O)(c3ccc(C(F)(F)F)cn3)CC[C@H]2C1` [Example 42, [(7S,9aS)-7-hydroxy-7-[5-(trifluoromethyl)pyridin-2-yl]-3,4,6,8,9,9a-hexahydro-1H-pyrido[1,2-a]pyrazin-2-yl]-(2-chloro-3-fluorophenyl)methanone] had an IC50 of 4820 nM.

Consider `O=C(c1cccc(N2CC[C@H](O)C2)c1Cl)N1CCN2C[C@@](O)(c3ccc(F)c(Cl)c3)CC[C@@H]2C1` [Example 43, [(7S,9aR)-7-(3-chloro-4-fluorophenyl)-7-hydroxy-3,4,6,8,9,9a-hexahydro-1H-pyrido[1,2-a]pyrazin-2-yl]-[2-chloro-3-[(3S)-3-hydroxypyrrolidin-1-yl]phenyl]methanone], for which the IC50 stood at 20.7 nM.

In turn, `O=C(c1cccc(N2CC[C@@H](O)C2)c1Cl)N1CCN2C[C@@](O)(c3ccc(F)c(Cl)c3)CC[C@@H]2C1` [Example 44, [(7S,9aR)-7-(3-chloro-4-fluorophenyl)-7-hydroxy-3,4,6,8,9,9a-hexahydro-1H-pyrido[1,2-a]pyrazin-2-yl]-[2-chloro-3-[(3R)-3-hydroxypyrrolidin-1-yl]phenyl]methanone] registered an IC50 of 15.4 nM. The IC50 values of the last two molecules are within 1.5-fold of each other.
